In patent US11613560B2, “Bicyclic peptide ligands specific for OX40” (BicycleTx Limited, priority 2019, dated 2023):

Biological target: T1, OX40 (Homo sapiens, UniProt P43489)
T1 construct: host or cells: OX40 Jurkat cells (NF-kB luciferase reporter)
T1 sequence (P43489 29-277): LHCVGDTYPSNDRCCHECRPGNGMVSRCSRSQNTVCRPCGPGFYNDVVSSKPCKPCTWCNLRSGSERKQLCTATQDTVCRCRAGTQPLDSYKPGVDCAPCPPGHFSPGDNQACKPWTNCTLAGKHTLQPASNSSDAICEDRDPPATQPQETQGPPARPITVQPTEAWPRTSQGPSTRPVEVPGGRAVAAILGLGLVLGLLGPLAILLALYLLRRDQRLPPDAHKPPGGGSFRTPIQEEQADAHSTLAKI
Test: Promega OX40 cell-activity assay (NF-κB luciferase read-out in OX40 Jurkat cells)
Format: cell-based
Settings: synthetic OX40 tetramer, FIG. 1
Experimental: Promega have developed an OX40 cell-activity assay that uses NF-κB luciferase luminescence as a read-out of OX40 activation in Jurkat cells (Promega CS197704). On the day of the experiment, prepare medium by thawing FBS and adding 5% FBS to RPMI-1640. Thaw OX40 Jurkat cells in the water-bath and then add 500 μl cells to 11.5 ml pre-warmed 5 FBS RPMI-1640 medium. Add 60 μl cells/well to white cell culture plates. Proceed to dilute agonists at concentration giving the maximum fold induction and then titrate down the amount in a sterile 96 well-plate. […] Prepare enough reagent for duplicate samples and then perform ⅓ dilution series or 1/10 dilution series. Include positive control OX40L trimer (R&D systems #1054-OX-010) and negative control monomeric peptide. Add 20 μl of agonist as duplicate samples or 5% FBS RPMI-1640 alone as background control.
Co-incubate cells together with agonists for 5 hours at 37° C., 5% CO2. After 5 hours, thaw Bio-Glo™ and develop the assay at room-temperature. Add 80 μl Bio-Glo™ per well and incubate 5-10 min. Read luciferase signal on CLARIOStar plate-reader using the MARS program and normalize the fold induction relative to background (medium alone). Analyse data by transforming the data to x=log (X), then plot log (agonist) vs. response variable slope (4 parameters) to calculate EC50 values.

## CC(C)C[C@@H]1NC(=O)[C@@H](NC(=O)[C@H](C)N)CSCCC(=O)N2CN3CN(C2)C(=O)CCSC[C@H](NC(=O)[C@@H]2CCCN2C(=O)[C@H](CO)NC(=O)[C@H](Cc2ccc(O)cc2)NC1=O)C(=O)N[C@@H](Cc1c[nH]c2ccccc12)C(=O)N[C@@H](Cc1c[nH]cn1)C(=O)N1CCC[C@H]1C(=O)N[C@@H](CC(C)C)C(=O)N[C@@H](CC(N)=O)C(=O)N[C@@H](CC(=O)O)C(=O)N[C@H](C(=O)N[C@@H](C)C(=O)N[C@@H](CCCCNC(=O)CCc1cn(CCOCCOCCOCCOCCOCCOCCOCCOCCOCCOCCOCCOCCOCCOCCOCCOCCOCCOCCOCCOCCOCCOCCOCCNC(=O)CCOCC(COCCC(=O)NCCOCCOCCOCCOCCOCCOCCOCCOCCOCCOCCOCCOCCOCCOCCOCCOCCOCCOCCOCCOCCOCCOCCOCCn2cc(CCC(=O)NCCCC[C@H](NC(=O)[C@H](C)NC(=O)[C@@H]4CSCCC(=O)N5CN6CN(C5)C(=O)CCSC[C@H](NC(=O)[C@@H]5CCCN5C(=O)[C@H](CO)NC(=O)[C@H](Cc5ccc(O)cc5)NC(=O)[C@H](CC(C)C)NC(=O)[C@@H](NC(=O)[C@H](C)N)CSCCC6=O)C(=O)N[C@@H](Cc5c[nH]c6ccccc56)C(=O)N[C@@H](Cc5c[nH]cn5)C(=O)N5CCC[C@H]5C(=O)N[C@@H](CC(C)C)C(=O)N[C@@H](CC(N)=O)C(=O)N[C@@H](CC(=O)O)C(=O)N4)C(N)=O)nn2)(COCCC(=O)NCCOCCOCCOCCOCCOCCOCCOCCOCCOCCOCCOCCOCCOCCOCCOCCOCCOCCOCCOCCOCCOCCOCCOCCn2cc(CCC(=O)NCCCC[C@H](NC(=O)[C@H](C)NC(=O)[C@@H]4CSCCC(=O)N5CN6CN(C5)C(=O)CCSC[C@H](NC(=O)[C@@H]5CCCN5C(=O)[C@H](CO)NC(=O)[C@H](Cc5ccc(O)cc5)NC(=O)[C@H](CC(C)C)NC(=O)[C@@H](NC(=O)[C@H](C)N)CSCCC6=O)C(=O)N[C@@H](Cc5c[nH]c6ccccc56)C(=O)N[C@@H](Cc5c[nH]cn5)C(=O)N5CCC[C@H]5C(=O)N[C@@H](CC(C)C)C(=O)N[C@@H](CC(N)=O)C(=O)N[C@@H](CC(=O)O)C(=O)N4)C(N)=O)nn2)COCCC(=O)NCCOCCOCCOCCOCCOCCOCCOCCOCCOCCOCCOCCOCCOCCOCCOCCOCCOCCOCCOCCOCCOCCOCCOCCn2cc(CCC(=O)NCCCC[C@H](NC(=O)[C@H](C)NC(=O)[C@@H]4CSCCC(=O)N5CN6CN(C5)C(=O)CCSC[C@H](NC(=O)[C@@H]5CCCN5C(=O)[C@H](CO)NC(=O)[C@H](Cc5ccc(O)cc5)NC(=O)[C@H](CC(C)C)NC(=O)[C@@H](NC(=O)[C@H](C)N)CSCCC6=O)C(=O)N[C@@H](Cc5c[nH]c6ccccc56)C(=O)N[C@@H](Cc5c[nH]cn5)C(=O)N5CCC[C@H]5C(=O)N[C@@H](CC(C)C)C(=O)N[C@@H](CC(N)=O)C(=O)N[C@@H](CC(=O)O)C(=O)N4)C(N)=O)nn2)nn1)C(N)=O)CSCCC3=O [BCY12019]
  EC50 (range in words): low nanomolar range
